Inhibition and IC50 data for 19 compounds are collected here from patent US4657916A, “Quinoline-N-oxide derivative and pharmaceutical composition” (Kyowa Hakko Kogyo Co., Ltd., priority 1984, dated 1987).

Where a name gives a salt, the structure may show the parent alone.

The first test addresses T1, 5-lipoxygenase (Rattus norvegicus, UniProt P12527).
T1 construct: (RBL-1, ATCC NO. CRL 1378) cells of rats were used as a 5-lipoxygenase enzyme source; endogenous in cells; host or cells: RBL-1 (rat basophilic leukemia) cells, ATCC CRL 1378
T1 sequence (P12527 1-673): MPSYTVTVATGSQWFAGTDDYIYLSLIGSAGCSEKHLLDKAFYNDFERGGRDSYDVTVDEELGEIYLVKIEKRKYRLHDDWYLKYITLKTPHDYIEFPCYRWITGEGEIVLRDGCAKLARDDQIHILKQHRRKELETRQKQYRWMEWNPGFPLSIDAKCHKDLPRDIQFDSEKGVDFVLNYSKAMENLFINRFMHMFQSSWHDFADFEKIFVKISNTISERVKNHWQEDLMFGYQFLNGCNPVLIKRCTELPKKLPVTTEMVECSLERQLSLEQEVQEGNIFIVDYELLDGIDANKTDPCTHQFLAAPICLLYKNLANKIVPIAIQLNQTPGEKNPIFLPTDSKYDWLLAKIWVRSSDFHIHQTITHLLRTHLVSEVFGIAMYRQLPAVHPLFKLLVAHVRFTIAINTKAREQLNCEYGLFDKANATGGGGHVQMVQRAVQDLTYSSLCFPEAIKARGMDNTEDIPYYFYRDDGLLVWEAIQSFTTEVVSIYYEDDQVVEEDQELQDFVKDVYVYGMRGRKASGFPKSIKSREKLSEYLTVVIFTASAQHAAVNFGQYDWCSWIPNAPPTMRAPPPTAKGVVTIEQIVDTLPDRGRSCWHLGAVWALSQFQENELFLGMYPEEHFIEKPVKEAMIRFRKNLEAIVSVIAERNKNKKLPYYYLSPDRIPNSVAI
Kind of test: Inhibiting action on leukocyte 5-lipoxygenase in vitro (RBL-1 cells as enzyme source, 14C-arachidonic acid). It is filed as biochemical, rats. The settings on record: 1 μM compound; RBL-1 rat cells; 37° C., 5 minutes; read-out: 5-lipoxygenase-inhibiting activity: Percent inhibition at 1 μM compound concentration. The procedure: Inhibiting actions of test compounds shown in Table 2 on lipoxygenase in vitro were determined according to the following procedure.
Procedure for determining inhibiting actions on leukocyte 5-lipoxygenase:
Determination was conducted according to the modified B. A. Jakschik et al procedure [Biochim. Biophys. Res. Commun. 95, 103 (1980)]. That is, Leukemic basophilic granulocyte (RBL-1, ATCC NO. CRL 1378) cells of rats were used as a 5-lipoxygenase enzyme source, and the cells and a test compound were contacted with each other in a 0.07 M tris hydrochloric acid buffer solution in the presence of 0.7 μm moles of calcium chloride at 37° C. for 5 minutes, and then 20 μmoles of [^14 C]-arachidonic acid was added thereto. The mixture was subjected to reaction at 37° C. for 5 minutes. The reaction product was extracted with ethyl acetate/methanol/0.2 M citric acid (30/4/1) and the extract was subjected to a thin layer chromatographic separation (developing solvent: petroleum ether/ethyl ether/acetic acid=50/50/1), and the spot of […] in the product was scraped off and ^14 C was measured by a liquid scintillation counter.
For the compound `[O-][n+]1c(CCCCCCCCCCCO)cc(OCc2ccccc2)c2ccccc21` [1-(2), 4-benzyloxy-2-(11-hydroxyundecyl) quinoline-N-oxide], the inhibition at 1 µM is 7.7%.

For the compound `[O-][n+]1c(CCCO)cc(OCc2ccccc2)c2ccccc21` [Example 2, 4-benzyloxy-2-(3-hydroxypropyl) quinoline-N-oxide], the inhibition at 1 µM was found to be 2.7%.

For `[O-][n+]1c(CCCOC2CCCCO2)cc(O)c2ccccc21` (stereo not shown) [Example 4, 4-hydroxy-2-[3-(2-tetrahydropyranyloxy)propyl] quinoline-N-oxide], the inhibition at 1 µM was determined as 1.6%.

In the case of `[O-][n+]1c(CCCCCCCCCCCOC2CCCCO2)cc(OCc2ccccc2)c2ccccc21` (stereo not shown) [Example 6, 4-benzyloxy-2-[11-(2-tetrahydropyranyloxy)undecyl] quinoline-N-oxide], the inhibition at 1 µM was determined as 20%.

As for `O=CCCCCCCCCCCc1cc(OCc2ccccc2)c2ccccc2[n+]1[O-]` [Example 7, 4-benzyloxy-2-(10-formyldecyl) quinoline-N-oxide], the inhibition at 1 µM came to 33.1%.

`O=C(O)CCCCCCCCCCc1cc(OCc2ccccc2)c2ccccc2[n+]1[O-]` [Example 8, 4-benzyloxy-2-(10-carboxydecyl) quinoline-N-oxide]: the inhibition at 1 µM was determined as 27.3%.

For the compound `NCCCCCCCCCCCc1cc(OCc2ccccc2)c2ccccc2[n+]1[O-]` [Example 9, 4-benzyloxy-2-(11-aminoundecyl) quinoline-N-oxide], the inhibition at 1 µM came out at 27%.

As for `[O-][n+]1c(CCCCCCCCCCCNCc2ccccc2)cc(OCc2ccccc2)c2ccccc21` [Example 10, 4-benzyloxy-2-[11-(N-benzylaminoundecyl)] quinoline-N-oxide], the inhibition at 1 µM was 32.4%.

For `[O-][n+]1c(CCCCCCCCCCC=NO)cc(OCc2ccccc2)c2ccccc21` [Example 11], the inhibition at 1 µM was found to be 36.6%.

Turning to `COC(CCCCCCCCCCc1cc(OCc2ccccc2)c2ccccc2[n+]1[O-])OC` [Example 12, 4-benzyloxy-2-(11,11-dimethoxyundecyl) quinoline-N-oxide], the inhibition at 1 µM came out at 37.2%.

For the compound `[O-][n+]1c(CCCOC2CCCCO2)cc(OCc2ccccc2)c2ccccc21` (stereo not shown) [Example 13, 4-benzyloxy-2-[3-(2-tetrahydropyranyloxy)propyl]quinoline-Noxide], the inhibition at 1 µM is 11.5%.

Still in this test, the particulars now being: RBL-1 rat cells; 37° C., 5 minutes.
In turn, `[O-][n+]1c(CCCCCCCCCCCO)cc(O)c2ccccc21` [Example 3, 4-hydroxy-2-(11-hydroxyundecyl) quinoline-N-oxide] showed a 50% inhibitory concentration (IC50) of 280 nM.

On to `[O-][n+]1c(CCCCCCCCCCCO)c(Br)c(O)c2ccccc21` [Example 5, 3-bromo-4-hydroxy-2-(11-hydroxyundecyl) quinoline-N-oxide], for which the IC50 was 220 nM.

On to `[O-][n+]1c(CCCCCCCCCCCOC2CCCCO2)cc(O)c2ccccc21` (stereo not shown) [Example 14, 4-hydroxy-2-[11-(2-tetrahydropyranyloxy)undecyl] quinoline-N-oxide], for which the concentration for half-maximal inhibition (IC50) worked out at 160 nM.

In the case of `O=C(O)CCCCCCCCCCc1cc(O)c2ccccc2[n+]1[O-]` [Example 15, 4-hydroxy-2-(10-carboxydecyl) quinoline-Noxide], 2700 nM corresponded to half-maximal inhibition (IC50).

Compound `NCCCCCCCCCCCc1cc(O)c2ccccc2[n+]1[O-]` [Example 16, 4-hydroxy-2-(11-aminoundecyl) quinoline-Noxide. hydrochloride] gave an IC50 of 250 nM. This IC50 lies about 11-fold lower than the previous one.

Compound `[O-][n+]1c(CCCCCCCCCCCNCc2ccccc2)cc(O)c2ccccc21` [Example 17, 4-hydroxy-2-[11-(N benzylaminoundecyl)] quinoline-Noxide] showed a half-maximal inhibitory concentration (IC50) of 270 nM. The IC50 values of the last two compounds are within 1.5-fold of each other.

Turning to `COC(CCCCCCCCCCc1cc(O)c2ccccc2[n+]1[O-])OC` [Example 19, 4-hydroxy-2-(11,11-dimethoxyundecyl) quinoline-Noxide], the half-inhibitory concentration (IC50) was determined as 180 nM.

`O=CCCCCCCCCCCc1cc(O)c2ccccc2[n+]1[O-]` [Example 20, 4-hydroxy-2-(10-formyldecyl) quinoline-Noxide] had a 50% inhibitory concentration (IC50) of 1700 nM.

As a reminder, the IC50 is the concentration that gives 50% inhibition. Low readings indicate higher potency, high ones lower potency.
